Test system: Micrococcus flavus ATCC 10240, Sarcina lutea ATCC 9341 and Staph. epidermidis ATCC 12228
Experiment: antibacterial activity compared with tetracycline, statement for three organisms
Type: cell-based
Details: strongest activity against M. flavus ATCC 10240, Sarcina lutea ATCC 9341, Staph. epidermidis ATCC 12228

`Cc1c2c(c(O)c3c(O)cccc13)C(=O)C1(O)C(=O)C(C(N)=O)=C(O)C(NS(=O)(=O)c3ccc(Br)cc3)C1C2` (stereo not shown) [Compound 4, 4-p-bromobenzenesulfonamido-5a,6-anhydrotetracycline] was tested. Which “activity relative to that of tetracycline” value (“activity relative to that” for short) did it give?
The value was “considerably superior or equal to that of tetracycline”.

Which “activity relative to that” value does the source give for `Cc1c2c(c(O)c3c(O)cccc13)C(=O)C1(O)C(=O)C(C(N)=O)=C(O)C(NS(=O)(=O)c3ccc(F)cc3)C1C2` (stereo not shown) [Compound 3, 4-p-fluorbenzenesulfonamido-5a,6-anhydrotetracycline] here?
The value was “considerably superior or equal to that of tetracycline”.

With `Cc1ccc(S(=O)(=O)NC2C(O)=C(C(N)=O)C(=O)C3(O)C(=O)c4c(c(C)c5cccc(O)c5c4O)CC23)cc1` (stereo not shown) [Compound 2, 4-p-toluene-sulfonamido-5a,6-anhydrotetracycline] as the compound, how does the “activity relative to that” value read?
The value was “considerably superior or equal to that of tetracycline”.

Which “activity relative to that” value does the source give for `CCc1ccc(S(=O)(=O)NC2C(O)=C(C(N)=O)C(=O)C3(O)C(=O)c4c(c(C)c5cccc(O)c5c4O)CC23)cc1` (stereo not shown) [Compound 6, 4-p-ethylbenzenesulfonamido-5a,6-anhydrotetracycline] here?
The value was “considerably superior or equal to that of tetracycline”.
